From US11691972B2, “Compounds for targeted degradation of BRD9” (C4 Therapeutics, Inc., priority 2020, dated 2023) come the findings set out here.

One series addresses CYP 2C19 (Homo sapiens, UniProt P33261). The experiment in a line: CYP inhibition 2C19. In kind it is in vitro ADME.
For the next series, the target named is GSPT1 (Homo sapiens, UniProt P15170). Description: GSPT1 degradation. It is filed as cell-based. The conditions noted are these: one value given for IKZF1/SALL4/GSPT1.
The target of series [1] is T1, BRD9 (Homo sapiens, UniProt Q9H8M2).
T1 sequence (Q9H8M2 1-597): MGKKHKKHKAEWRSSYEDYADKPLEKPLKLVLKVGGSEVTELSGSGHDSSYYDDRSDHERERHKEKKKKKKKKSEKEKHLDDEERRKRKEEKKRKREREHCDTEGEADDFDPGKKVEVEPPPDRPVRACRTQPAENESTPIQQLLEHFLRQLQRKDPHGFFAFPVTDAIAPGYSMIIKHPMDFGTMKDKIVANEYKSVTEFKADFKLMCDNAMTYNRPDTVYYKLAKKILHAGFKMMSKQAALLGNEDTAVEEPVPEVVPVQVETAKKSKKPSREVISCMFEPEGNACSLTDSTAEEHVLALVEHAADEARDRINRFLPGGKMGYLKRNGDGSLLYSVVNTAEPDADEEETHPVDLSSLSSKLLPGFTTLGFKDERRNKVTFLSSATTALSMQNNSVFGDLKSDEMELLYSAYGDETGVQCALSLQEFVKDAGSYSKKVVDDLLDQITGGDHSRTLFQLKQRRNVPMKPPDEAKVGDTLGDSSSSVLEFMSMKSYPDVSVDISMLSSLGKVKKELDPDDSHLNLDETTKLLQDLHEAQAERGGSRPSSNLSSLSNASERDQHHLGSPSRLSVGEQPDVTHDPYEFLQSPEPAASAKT
The experiment in a line: Western blot, in-vivo BRD9 degradation in ASKA-SS tumors. The arrangement: inoculated subcutaneously into BALB/c nude mice at the right flank for tumor development; from tissue; host or cells: Yamato-SS xenograft tumours in BALB/c nude mice; species or system BALB/c nude mice. The conditions noted are these: single dose 10 or 75 mg/kg PO, FIG. 13. Here is the method: ASKA-SS cells were maintained in vitro until exponential growth phase and inoculated subcutaneously into BALB/c nude mice at the right flank for tumor development. Mice were treated with single dose of Compound 172 at 10 or 75 mg/kg PO. Tumor were collected at indicated time points and snap frozen until lysis. Tumors were ground and lysed in RIPA Buffer containing 2× protease/phosphatase inhibitor using a freeze grinder at 50 Hz for 5 minutes. Protein concentrations were determined by Pierce™ BCA Protein Assay Kit. Samples were diluted to appropriate concentrations and run in a western blot.

The target of the next series is SALL4 (Homo sapiens, UniProt Q9UJQ4). Description: SALL4 degradation. It is filed as cell-based. The following applies: one value given for IKZF1/SALL4/GSPT1.
In the next series the target is T2, BRD7 (Homo sapiens, UniProt Q9NPI1).
T2 construct: endogenously expressing BRD7 with HiBiT fusion tag via CRISPR; host or cells: 293T.167 (BRD7-HiBiT), also expressing LgBiT ectopically
The experiment in a line: BRD7 degradation (24 h), HiBiT 293T.167 cells. In kind it is cell-based. The source says: Dulbecco's modified Eagle medium (DMEM) without phenol red and fetal bovine serum (FBS) were purchased from Gibco (Grand Island, N.Y., USA). Nano-Glo® HiBiT Lytic Assay System was purchased from Promega (Madison, Wis., USA). 293T.166 (BRD9-HiBiT) cell line, endogenously expressing BRD9 with HiBiT fusion tag via CRISPR and ectopically expressing LgBiT tag, was purchased from Promega (Madison, Wis., USA). 293T.167 (BRD7-HiBiT) cell line, endogenously expressing BRD7 with HiBiT fusion tag via CRISPR and ectopically expressing LgBiT tag, was purchased from Promega (Madison, Wis., USA). 293T.92 (BRD4-HiBiT) cell line, endogenously expressing BRD4 with HiBiT fusion tag via CRISPR and ectopically expressing LgBiT tag, was generated in-house. Cell culture flasks and 384-well microplates were acquired from VWR (Radnor, Pa., USA).
BRD9 degradation was determined based on quantification of luminescent signal using Nano-Glo® HiBiT Lytic Assay kit. Test compounds were added to the 384-well plate from a top concentration of 10 μM with 11 points, half log titration in duplicates. 293T.166 cells were added into 384-well plates at a cell density of 10,000 cells per well. […] BRD7 and BRD4 degradation was similarly determined with 293T.167 cells and 293T.92 cells, respectively. […] Luminescence was acquired on EnVision™ Multilabel Reader (PerkinElmer, Santa Clara, Calif., USA).
For orientation: The HiBiT peptide binds its large partner to form an active luciferase.

In series [2] the target is T1, BRD9. Description: Western blot of BRD9, BRD4 and BRD7 in Yamato-SS cells. It is filed as cell-based. The arrangement: endogenous in cells; host or cells: Yamato-SS (human synovial sarcoma). The following applies: FIG. 3. How it is done: After treatment cells were collected, lysed in RIPA buffer supplemented with 2× proteasome/protease inhibitor, and protein concentrations were determined by Pierce™ BCA Protein Assay Kit. Samples were diluted to appropriate concentrations and run in a western blot.
Background: Immunoblotting shows a protein as a band on a membrane.

Where only a bound is given, the exact number is not on record here.

T2 sequence (Q9NPI1 whole entry, the tested form may be a part): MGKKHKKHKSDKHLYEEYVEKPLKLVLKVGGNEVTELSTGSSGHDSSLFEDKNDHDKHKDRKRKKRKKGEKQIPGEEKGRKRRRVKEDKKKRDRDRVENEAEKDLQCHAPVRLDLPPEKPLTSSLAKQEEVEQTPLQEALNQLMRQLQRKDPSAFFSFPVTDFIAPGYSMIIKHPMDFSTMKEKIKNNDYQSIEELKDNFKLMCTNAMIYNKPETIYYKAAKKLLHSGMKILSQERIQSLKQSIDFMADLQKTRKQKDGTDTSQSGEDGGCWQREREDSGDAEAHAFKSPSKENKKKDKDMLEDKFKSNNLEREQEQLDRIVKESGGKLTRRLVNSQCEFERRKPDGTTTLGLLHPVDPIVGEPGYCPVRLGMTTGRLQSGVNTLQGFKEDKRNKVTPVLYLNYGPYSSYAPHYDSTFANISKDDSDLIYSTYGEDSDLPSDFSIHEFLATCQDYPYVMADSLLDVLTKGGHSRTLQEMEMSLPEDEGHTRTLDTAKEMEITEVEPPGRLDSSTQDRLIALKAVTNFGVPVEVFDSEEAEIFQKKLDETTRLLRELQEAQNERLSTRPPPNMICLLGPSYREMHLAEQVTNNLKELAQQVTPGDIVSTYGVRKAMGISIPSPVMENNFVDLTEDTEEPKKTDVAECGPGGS
Sequence of SALL4 (Q9UJQ4 whole entry, species assumed): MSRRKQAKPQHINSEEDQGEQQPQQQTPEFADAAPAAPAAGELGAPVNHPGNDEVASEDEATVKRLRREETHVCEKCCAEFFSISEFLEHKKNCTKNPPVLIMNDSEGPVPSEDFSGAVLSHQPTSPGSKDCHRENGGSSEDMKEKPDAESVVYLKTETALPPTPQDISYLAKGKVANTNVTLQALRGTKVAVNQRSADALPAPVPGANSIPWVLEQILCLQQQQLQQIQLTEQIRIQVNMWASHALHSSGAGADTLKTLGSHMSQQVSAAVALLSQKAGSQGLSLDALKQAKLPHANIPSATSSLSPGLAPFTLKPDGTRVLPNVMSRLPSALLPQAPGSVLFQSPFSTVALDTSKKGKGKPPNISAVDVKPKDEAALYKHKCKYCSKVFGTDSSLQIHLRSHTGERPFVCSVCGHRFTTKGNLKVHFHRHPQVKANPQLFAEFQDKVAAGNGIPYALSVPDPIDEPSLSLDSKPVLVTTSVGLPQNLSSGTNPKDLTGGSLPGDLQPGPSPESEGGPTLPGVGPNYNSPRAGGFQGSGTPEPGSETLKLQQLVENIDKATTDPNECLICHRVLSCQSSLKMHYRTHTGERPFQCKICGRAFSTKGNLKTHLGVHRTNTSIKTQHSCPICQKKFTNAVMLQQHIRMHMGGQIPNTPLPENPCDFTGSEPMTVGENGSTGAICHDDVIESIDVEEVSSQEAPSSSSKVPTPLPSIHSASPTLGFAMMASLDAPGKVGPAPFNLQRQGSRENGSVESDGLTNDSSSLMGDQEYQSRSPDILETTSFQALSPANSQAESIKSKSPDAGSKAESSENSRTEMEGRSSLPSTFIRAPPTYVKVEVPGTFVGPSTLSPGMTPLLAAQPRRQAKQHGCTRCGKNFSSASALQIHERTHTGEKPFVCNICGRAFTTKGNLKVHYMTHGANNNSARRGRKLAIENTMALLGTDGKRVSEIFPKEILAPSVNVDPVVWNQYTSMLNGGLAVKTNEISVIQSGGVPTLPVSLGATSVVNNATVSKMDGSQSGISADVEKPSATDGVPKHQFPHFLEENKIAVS
Sequence of CYP 2C19 (P33261 whole entry): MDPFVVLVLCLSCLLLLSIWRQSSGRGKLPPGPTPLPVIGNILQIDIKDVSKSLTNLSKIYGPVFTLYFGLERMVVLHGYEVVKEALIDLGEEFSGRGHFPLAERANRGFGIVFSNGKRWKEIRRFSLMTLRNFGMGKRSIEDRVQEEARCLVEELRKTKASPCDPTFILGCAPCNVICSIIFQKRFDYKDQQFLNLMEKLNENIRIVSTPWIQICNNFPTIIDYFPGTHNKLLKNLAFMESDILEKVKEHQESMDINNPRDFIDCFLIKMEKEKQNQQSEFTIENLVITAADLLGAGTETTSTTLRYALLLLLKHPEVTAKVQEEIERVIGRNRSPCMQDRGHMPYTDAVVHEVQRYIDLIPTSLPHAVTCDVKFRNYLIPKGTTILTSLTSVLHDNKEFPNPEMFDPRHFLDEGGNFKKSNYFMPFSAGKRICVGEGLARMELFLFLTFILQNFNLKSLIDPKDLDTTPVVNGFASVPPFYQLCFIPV
Sequence of GSPT1 (P15170 whole entry, species assumed): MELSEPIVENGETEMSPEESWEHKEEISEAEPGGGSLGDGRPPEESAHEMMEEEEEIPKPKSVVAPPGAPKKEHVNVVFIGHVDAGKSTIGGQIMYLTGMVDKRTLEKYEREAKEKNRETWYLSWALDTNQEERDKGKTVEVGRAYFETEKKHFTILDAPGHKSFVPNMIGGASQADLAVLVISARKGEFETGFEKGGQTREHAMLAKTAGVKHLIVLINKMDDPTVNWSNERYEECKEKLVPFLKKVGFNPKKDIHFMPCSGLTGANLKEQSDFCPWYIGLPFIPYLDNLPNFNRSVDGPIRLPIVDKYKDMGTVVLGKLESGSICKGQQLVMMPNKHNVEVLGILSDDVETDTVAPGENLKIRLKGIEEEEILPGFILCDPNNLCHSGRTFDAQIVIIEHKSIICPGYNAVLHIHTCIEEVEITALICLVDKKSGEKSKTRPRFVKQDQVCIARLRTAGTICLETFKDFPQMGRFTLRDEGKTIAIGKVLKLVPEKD

The term IC50 denotes the point on the concentration scale where inhibition reaches its midpoint. As usually defined, the Emax is the size of the effect at its maximum, as opposed to the concentration needed. Consider `COc1cc(-c2cn(C)c(=O)c(C)c2C)cc(OC)c1CN1CCC(N2CCN(c3ccc(NC4CCC(=O)NC4=O)cc3F)CC2)C(F)(F)C1` (stereo not shown) [Compound 172, 3-[4-[4-[1-[[2,6-dimethoxy-4-(1,4,5-trimethyl-6-oxo-3-pyridyl)phenyl]methyl]-3,3-difluoro-4-piperidyl]piperazin-1-yl]-3-fluoro-anilino]piperidine-2,6-dione], for which 30 µM corresponded to half-maximal inhibition at CYP 2C19 (IC50). Further, the DC50 at GSPT1 is more than 9.99 µM; on SALL4, more than 9.99 µM; on BRD7 (24 h, read-out: BRD7 degradation (24 h), IP), more than 9.99 µM. In addition, the “in-vivo BRD9 degradation, western blot” value on BRD9 [1] is on record as “dose dependent in-vivo BRD9 degradation”. In addition, the Emax on BRD7 came to 100%. Also, the “degradation of BRD9 versus BRD4 and BRD7, western blot” value at BRD9 [2] is “dose response degradation specific to BRD9, and not bromodomain containing proteins BRD4 and BRD7”.
